Measurements reported in ChEMBL document CHEMBL1123686, “Esters of N,N-disubstituted 2-hydroxyacetamides as a novel highly biolabile prodrug type for carboxylic acid agents” (J Med Chem, 1987).
In brackets after ≈: the same amount, converted by molar mass.

Tests used:
[1] = (§1) Half life of ester hydrolysis in 50% human plasma ( pH of 7.4) at 37 degree Centigrade; conditions: 50% human plasma, pH 7.4
[2] = physchem
[3] = Second order rate constant for hydroxide ion catalyzed by hydrolysis at 37 degree Centigrade
[4] = physchem; remark: listed apart in the source
[5] = Half life of ester hydrolysis in 50% human plasma ( pH of 7.4) at 37 degree Centigrade.; type: ADME, organism-based; conditions: pH 7.4
[6] = species on record: Homo sapiens; assay: as §1; conditions: pH 7.4
[7] = species on record: Homo sapiens; conditions: Plasma, pH 7.4
Description: Ability to undergo in vitro ester hydrolysis in 80% human plasma ( pH of 7.4) at 37 degree Celsius expressed as half life of methyl ester hydrolysis

[8] = species on record: Homo sapiens; conditions: Plasma, pH 7.4; remark: listed apart in the source
Description: Ability to undergo in vitro ester hydrolysis in 80% human plasma ( pH of 7.4) at 37 degree Celsius expressed as half life of N,N-diethylglycolamide ester hydrolysis

Row | half-life [1] | solubility [2] | kOH [3] | logD ([4]; 0.01 M HCl) | Structure (SMILES) | further results
1 | 4.2 min | 320 µg/mL (≈ 1.36 mM) | 0.855 M⁻¹ s⁻¹ | 2.26 | CC(C)(C)NC(=O)COC(=O)c1ccccc1 | 
2 | 104 min |  | 0.25 M⁻¹ s⁻¹ | 0.67 | CN(CC(=O)O)C(=O)COC(=O)c1ccccc1 | 
3 | 0.16 min |  | 0.273 M⁻¹ s⁻¹ |  | CCN(CCO)C(=O)COC(=O)c1ccccc1 | 
4 | 12.7 min |  | 0.357 M⁻¹ s⁻¹ |  | CN1CCN(C(=O)COC(=O)c2ccccc2)CC1 | 
5 | 0.12 min | > 200000 µg/mL | 0.297 M⁻¹ s⁻¹ |  | CN(C)CCN(C)C(=O)COC(=O)c1ccccc1.Cl | 
6 |  | 4100 µg/mL (≈ 22.9 mM) | 1.32 M⁻¹ s⁻¹ | 0.09 | NC(=O)COC(=O)c1ccccc1 [BENZOIC ACID CARBAMOYLMETHYL ESTER] | half-life [5]: 31 min
7 | 0.14 min |  | 0.237 M⁻¹ s⁻¹ |  | CCCN(CCC)C(=O)COC(=O)c1ccccc1 [BENZOIC ACID DIPROPYLCARBAMOYLMETHYL ESTER] | 
8 | 11.5 min | 1200 µg/mL (≈ 5.79 mM) | 1.1 M⁻¹ s⁻¹ | 1.28 | CCNC(=O)COC(=O)c1ccccc1 [BENZOIC ACID ETHYLCARBAMOYLMETHYL ESTER] | 
9 | 9.3 min | 3700 µg/mL (≈ 19.2 mM) | 1.42 M⁻¹ s⁻¹ | 0.99 | CNC(=O)COC(=O)c1ccccc1 [BENZOIC ACID METHYLCARBAMOYLMETHYL ESTER] | 
10 | 11.2 min | 640 µg/mL (≈ 2.89 mM) | 0.868 M⁻¹ s⁻¹ | 1.88 | CCCNC(=O)COC(=O)c1ccccc1 [BENZOIC ACID PROPYLCARBAMOYLMETHYL ESTER] | 
11 |  |  |  |  | COc1ccc2c(c1)c(CC(=O)O)c(C)n2C(=O)c1ccc(Cl)cc1 [INDOMETHACIN] | T1/2 [7]: 150 h; T1/2 [8]: 25 min
12 |  |  |  |  | O=C(O)c1ccccc1O [SALICYLIC ACID] | T1/2 [7]: 17.6 h; T1/2 [8]: 0.08 min

Row | Structure (SMILES) | half-life [1] | solubility [2] | kOH [3] | logD ([4]; 0.01 M HCl) | further results
13 | CCOC(=O)CN(C)C(=O)COC(=O)c1ccccc1 | 0.22 min |  |  |  | 
14 | O=C(OCC(=O)N(CCO)CCO)c1ccccc1 | 0.42 min | 720000 µg/mL (≈ 2690 mM) | 0.23 M⁻¹ s⁻¹ |  | 
15 | CN(CCO)C(=O)COC(=O)c1ccccc1 | 0.2 min |  | 0.268 M⁻¹ s⁻¹ |  | 
16 | C=CCN(CC=C)C(=O)COC(=O)c1ccccc1 [BENZOIC ACID DIALLYLCARBAMOYLMETHYL ESTER] |  | 710 µg/mL (≈ 2.74 mM) | 0.307 M⁻¹ s⁻¹ |  | logD ([4]; octanol/water): 2.34; T1/2 [6]: 0.08 min
17 | CCCCN(CCCC)C(=O)COC(=O)c1ccccc1 [BENZOIC ACID DIBUTYLCARBAMOYLMETHYL ESTER] | 3.1 min | 80 µg/mL (≈ 0.275 mM) | 0.188 M⁻¹ s⁻¹ |  | 
18 | CCN(CC)C(=O)COC(=O)c1ccccc1 [BENZOIC ACID DIETHYLCARBAMOYLMETHYL ESTER] |  | 2000 µg/mL (≈ 8.5 mM) | 0.273 M⁻¹ s⁻¹ |  | T1/2 [6]: 0.04 min
19 | CN(C)C(=O)COC(=O)c1ccccc1 [BENZOIC ACID DIMETHYLCARBAMOYLMETHYL ESTER] | 0.15 min | 8800 µg/mL (≈ 42.5 mM) | 0.325 M⁻¹ s⁻¹ |  | 
